Experimental data taken from ChEMBL document CHEMBL3822440, “Semi-synthesis and antiproliferative evaluation of PEGylated pentacyclic triterpenes” (Eur J Med Chem, 2016).
Calls of active or inactive are those of the source. The calls are words filed in the database; no cut-off is given here.

Tests used:
HT-29 [1] = experiment: Disruption of mitochondrial membrane potential in human HT-29 cells assessed as rhodamine123 negative cells at cytotoxic IC50 after 72 hrs by propidium iodide staining based fluorescence spectroscopic analysis (reference value: 5.8 +/- 0.42%); assay type: functional
HT-29 [2] = experiment: Induction of apoptosis in human HT-29 cells assessed as loss of nuclear architecture at cytotoxic IC50 after 72 hrs by Hoechst staining based fluorescence microscopic analysis; assay type: functional, cell-based
HT-29 [3] = experiment: Induction of apoptosis in human HT-29 cells assessed as necrotic cells at cytotoxic IC50 after 72 hrs by Annexin V-FITC/propidium iodide staining based flow cytometry (reference value: 1.05 +/- 0.35%); assay type: functional
HepG2 [4] = experiment: Induction of apoptosis in human HepG2 cells assessed as cell shrinkage at cytotoxic IC50 after 72 hrs by Hoechst staining based fluorescence microscopic analysis; assay type: functional
HepG2 [5] = experiment: Cytotoxicity against human HepG2 cells assessed as growth inhibition after 72 hrs by MTT assay; assay type: functional, cell-based; settings: HepG2, 72 h
[6] = Induction of apoptosis in mouse B16F10 cells assessed as live cells at cytotoxic IC50 after 72 hrs by Annexin V-FITC/propidium iodide staining based flow cytometry (reference value: 97.55 +/- 0.5%); assay type: functional, B16-F10
B16-F10 [7] = experiment: Induction of apoptosis in mouse B16F10 cells assessed as loss of nuclear architecture at cytotoxic IC50 after 72 hrs by Hoechst staining based fluorescence microscopic analysis; assay type: functional, cell-based
HepG2 [8] = experiment: Induction of apoptosis in human HepG2 cells assessed as live cells at cytotoxic IC50 after 72 hrs by Annexin V-FITC/propidium iodide staining based flow cytometry (reference value: 99.55 +/- 0.07%); assay type: functional
[9] = Disruption of mitochondrial membrane potential in mouse B16F10 cells assessed as rhodamine123 negative cells at cytotoxic IC50 after 72 hrs by propidium iodide staining based fluorescence spectroscopic analysis (reference value: 4.45 +/- 0.64%); assay type: functional, B16-F10
HepG2 [10] = experiment: Disruption of mitochondrial membrane potential in human HepG2 cells assessed as rhodamine123 positive cells at cytotoxic IC50 after 72 hrs by propidium iodide staining based fluorescence spectroscopic analysis (reference value: 88.3 +/- 8.87%); assay type: functional
HepG2 [11] = experiment: Disruption of mitochondrial membrane potential in human HepG2 cells assessed as rhodamine123 negative cells at cytotoxic IC50 after 72 hrs by propidium iodide staining based fluorescence spectroscopic analysis (reference value: 11.7 +/- 6.8%); assay type: functional
HT-29 [12] = experiment: Induction of apoptosis in human HT-29 cells assessed as bubble shaped region in cell surface at cytotoxic IC50 after 72 hrs by Hoechst staining based fluorescence microscopic analysis; assay type: functional
HepG2 [13] = experiment: Induction of apoptosis in human HepG2 cells assessed as late apoptotic cells at cytotoxic IC50 after 72 hrs by Annexin V-FITC/propidium iodide staining based flow cytometry relative to control; assay type: functional
HT-29 [14] = experiment: Induction of apoptosis in human HT-29 cells assessed as spherical cell shape at cytotoxic IC50 after 72 hrs by Hoechst staining based fluorescence microscopic analysis; assay type: functional
[15] = Cell cycle arrest in mouse B16F10 cells assessed as accumulation at S phase at cytotoxic IC50 after 72 hrs by propidium iodide staining based flow cytometry (reference value: 48.31 +/- 0.74%); assay type: functional, B16-F10
HT-29 [16] = experiment: Induction of apoptosis in human HT-29 cells assessed as disruption of cell membrane integrity at cytotoxic IC50 after 72 hrs by Hoechst staining based fluorescence microscopic analysis; assay type: functional
HepG2 [17] = experiment: Potency index, ratio of maslinic acid IC50 to compound IC50 for human HepG2 cells; assay type: functional
[18] = Induction of apoptosis in mouse B16F10 cells assessed as early apoptotic cells at cytotoxic IC50 after 72 hrs by Annexin V-FITC/propidium iodide staining based flow cytometry (reference value: 0.75 +/- 0.07%); assay type: functional, B16-F10
[19] = Induction of apoptosis in mouse B16F10 cells assessed as late apoptotic cells at cytotoxic IC50 after 72 hrs by Annexin V-FITC/propidium iodide staining based flow cytometry (reference value: 0.75 +/- 0.21%); assay type: functional, B16-F10
B16-F10 [20] = experiment: Induction of apoptosis in mouse B16F10 cells assessed as bubble shaped region in cell surface at cytotoxic IC50 after 72 hrs by Hoechst staining based fluorescence microscopic analysis; assay type: functional
HT-29 [21] = experiment: Induction of apoptosis in human HT-29 cells assessed as live cells at cytotoxic IC50 after 72 hrs by Annexin V-FITC/propidium iodide staining based flow cytometry (reference value: 96.65 +/- 0.78%); assay type: functional
HT-29 [22] = experiment: Potency index, ratio of maslinic acid IC50 to compound IC50 for human HT-29 cells; assay type: functional
HepG2 [23] = experiment: Induction of apoptosis in human HepG2 cells assessed as disruption of cell membrane integrity at cytotoxic IC50 after 72 hrs by Hoechst staining based fluorescence microscopic analysis; assay type: functional
HT-29 [24] = experiment: Cell cycle arrest in human HT-29 cells assessed as accumulation at G0/G1 phase at cytotoxic IC50 after 72 hrs by propidium iodide staining based flow cytometry (reference value: 55.18 +/- 0.22%); assay type: functional
[25] = Disruption of mitochondrial membrane potential in mouse B16F10 cells assessed as rhodamine123 positive cells at cytotoxic IC50 after 72 hrs by propidium iodide staining based fluorescence spectroscopic analysis (reference value: 95.6 +/- 0.57%); assay type: functional, B16-F10
HepG2 [26] = experiment: Cell cycle arrest in human HepG2 cells assessed as accumulation at G2/M phase at cytotoxic IC50 after 72 hrs by propidium iodide staining based flow cytometry (reference value: 8.47 +/- 2.55%); assay type: functional
HT-29 [27] = experiment: Induction of apoptosis in human HT-29 cells assessed as early apoptotic cells at cytotoxic IC50 after 72 hrs by Annexin V-FITC/propidium iodide staining based flow cytometry (reference value: 1.65 +/- 0.07%); assay type: functional
HT-29 [28] = experiment: Induction of apoptosis in human HT-29 cells assessed as nucleus containing nicked DNA at cytotoxic IC50 after 72 hrs by Hoechst staining based fluorescence microscopic analysis; assay type: functional, cell-based
HepG2 [29] = experiment: Induction of apoptosis in human HepG2 cells assessed as necrotic cells at cytotoxic IC50 after 72 hrs by Annexin V-FITC/propidium iodide staining based flow cytometry (reference value: 0.1 +/- 0.01%); assay type: functional
HepG2 [30] = experiment: Cell cycle arrest in human HepG2 cells assessed as accumulation at S phase at cytotoxic IC50 after 72 hrs by propidium iodide staining based flow cytometry (reference value: 54.71 +/- 2.37%); assay type: functional
HT-29 [31] = experiment: Induction of apoptosis in human HT-29 cells assessed as cell shrinkage at cytotoxic IC50 after 72 hrs by Hoechst staining based fluorescence microscopic analysis; assay type: functional
HT-29 [32] = experiment: Induction of apoptosis in human HT-29 cells assessed as chromatin condensation at cytotoxic IC50 after 72 hrs by Hoechst staining based fluorescence microscopic analysis; assay type: functional, cell-based
[33] = Cell cycle arrest in mouse B16F10 cells assessed as accumulation at G2/M phase at cytotoxic IC50 after 72 hrs by propidium iodide staining based flow cytometry (reference value: 1.01 +/- 0.13%); assay type: functional, B16-F10
[34] = Cytotoxicity against mouse B16F10 cells assessed as growth inhibition after 72 hrs by MTT assay; assay type: functional, cell-based; settings: B16-F10, 72 h
HT-29 [35] = experiment: Disruption of mitochondrial membrane potential in human HT-29 cells assessed as rhodamine123 positive cells at cytotoxic IC50 after 72 hrs by propidium iodide staining based fluorescence spectroscopic analysis (reference value: 94.25 +/- 0.35%); assay type: functional

Structure (SMILES)	Activity (HT-29 [1])	Activity (HT-29 [2])	Activity (HT-29 [3])	Activity (HepG2 [4])	IC50 (HepG2 [5])	Activity [6]	Activity (B16-F10 [7])	Activity (HepG2 [8])	Activity [9]	Activity (HepG2 [10])	Activity (HepG2 [11])	Activity (HT-29 [12])	Activity (HepG2 [13])	Activity (HT-29 [14])	Activity [15]	Activity (HT-29 [16])	Ratio IC50 (HepG2 [17])	Activity [18]	Activity [19]	Activity (B16-F10 [20])	other results
CC1(C)CC[C@]2(C(=O)NCCCOCCOCCOCCCN)CC[C@]3(C)C(=CC[C@@H]4[C@@]5(C)C[C@@H](O)[C@H](O)C(C)(C)[C@@H]5CC[C@]43C)[C@@H]2C1	36.95%	Active	0.2%	Active	7.68 µM	0.9%	Active	19.75%	51.95%	59.2%	40.85%	Active	33.05%	Active	22.44%	Active	12.9	60.25%	38.65%	Active	Activity (HT-29 [21]): 61%; Ratio IC50 (HT-29 [22]): 2.7; Activity (HepG2 [23]): Active; Activity (HT-29 [24]): 79.78%; Activity [25]: 48.05%; Activity (HepG2 [26]): 9.34%; Activity (HT-29 [27]): 31.25%; Activity (HT-29 [28]): Active; Activity (HepG2 [29]): 0.4%; Activity (HepG2 [30]): 50.45%; Activity (HT-29 [31]): Active; Activity (HT-29 [32]): Active; Activity [33]: 10.91%; IC50 [34]: 11.4 µM; Activity (HT-29 [35]): 63.1%
COCCOCCOCC(=O)O[C@@H]1C[C@]2(C)[C@H]3CC=C4[C@@H]5CC(C)(C)CC[C@]5(C(=O)O)CC[C@@]4(C)[C@]3(C)CC[C@H]2C(C)(C)[C@H]1OC(=O)COCCOCCOC	5.7%	Active	0%	Active	59.9 µM	11.1%	Active	55.7%	24.9%	56.7%	43.2%	Active	29.1%	Active	12.07%	Active	1.7	32.8%	56.05%	Active	Activity (HT-29 [21]): 59.75%; Ratio IC50 (HT-29 [22]): 0.8; Activity (HepG2 [23]): Active; Activity (HT-29 [24]): 94.28%; Activity [25]: 75.05%; Activity (HepG2 [26]): 15.45%; Activity (HT-29 [27]): 40.1%; Activity (HT-29 [28]): Active; Activity (HepG2 [29]): 0.4%; Activity (HepG2 [30]): 26.7%; Activity (HT-29 [31]): Active; Activity (HT-29 [32]): Active; Activity [33]: 0%; IC50 [34]: 48.4 µM; Activity (HT-29 [35]): 94.3%
